Laboratory results reported in publication PMC6199744, “Development of Chemical Proteomics for the Folateome and Analysis of the Kinetoplastid Folateome” (ACS Infectious Diseases, 2018).

Test system: L. major lysate proteins
Test: Multitargeted bead mixture chemoproteomics, single concentration competition, proteome-wide
Assay type: binding

`NCCCNc1ccc(C(=O)NC(CCC(=O)O)C(=O)O)cc1` (stereo not drawn) [compound 7] was tested, and the fold change (protein LMJF.35.0420 40S RIBOSOMAL PROTEIN S3A, PUTATIVE, vehicle control = 1) was 1.04, the “fold change relative to vehicle control” value (protein LMJF.35.1220, SHORT CHAIN DEHYDROGENASE, PUTATIVE) was 1.22 and the “fold change relative to vehicle control” value (protein LMJF.35.1380, MIT[…], BETA SUBUNIT, PUTATIVE) was 1.09. For the same compound, the “fold change vs vehicle control” value (protein LMJF.35.1830 HYPOTHETICAL PROTEIN, CONSERVED) was 0.96, the “fold change vs vehicle control” value (protein LMJF.35.3340 6-phosphogluconate dehydrogenase) was 1.02 and the fold change (protein LMJF.35.3700 GIM5A PROTEIN, PUTATIVE,GLYCOSOMAL MEMBRANE PROTEIN, vehicle control = 1) was 0.89. The “fold change vs vehicle control” value (protein LMJF.35.3760 60S RIBOSOMAL PROTEIN L27A/L29, PUTATIVE) was 0.84, the “fold change relative to vehicle control” value (protein LMJF.35.3840, […] 2 SUBUNIT, PUTATIVE) was 1.34 and the “fold change vs vehicle control” value (protein LMJF.35.3860 T-COMPLEX PROTEIN 1, ETA SUBUNIT, PUTATIVE) was 0.92. The fold change (protein LMJF.35.4420 MIT[…] TRANSPORTER, PUTATIVE, vehicle control = 1) was 1.06, the “fold change relative to vehicle control” value (protein LMJF.35.4880, HYPOTHETICAL PROTEIN, CONSERVED (TPR repeat, putative)) was 0.98 and the “fold change relative to vehicle control” value (protein LMJF.35.5330, ISOPENTENYL-D[…]-ISOMERASE, PUTATIVE) was 1.02. The “fold change relative to vehicle control” value (protein LMJF.36.0070, STRESS-INDUCIBLE PROTEIN STI1 HOMOLOG) was 1.21, the fold change (protein LMJF.36.0480 HY[…], CONSERVED, vehicle control = 1) was 1.01 and the “fold change vs vehicle control” value (protein LMJF.36.0620 HY[…], CONSERVED) was 1.07. For the same compound, the “fold change vs vehicle control” value (protein LMJF.36.0930 40S RIBOSOMAL PROTEIN S18, PUTATIVE) was 1.09, the “fold change vs vehicle control” value (protein LMJF.36.0990 40S RIBOSOMAL PROTEIN S10, PUTATIVE) was 1.03 and the fold change (protein LMJF.36.1140 SHORT CHAIN 3-HYDROXYACYL-COA DEHYDROGENASE, PUTATIVE, vehicle control = 1) was 0.85. The “fold change relative to vehicle control” value (protein LMJF.36.1260, FRUCTOSE-1,6-BI[…]) was 1.01, the fold change (protein LMJF.36.1340 N-ACETYLTRANSFERASE SUBUNIT NAT1, PUTATIVE, vehicle control = 1) was 0.79 and the “fold change vs vehicle control” value (protein LMJF.36.1650 PROTEASOME BETA 5 SUBUNIT, PUTATIVE) was 0.99. For the same compound, the “fold change relative to vehicle control” value (protein LMJF.36.2380, STEROL 24-C-METHYLTRANSFERASE, PUTATIVE) was 0.97, the “fold change vs vehicle control” value (protein LMJF.36.2950 SUCCINYL-COA LIGASE GDP-FORMING] BETA-CHAIN, PUTATIVE) was 1 and the “fold change vs vehicle control” value (protein LMJF.36.3210 14-3-3 PROTEIN-LIKE PROTEIN) was 0.87. The “fold change vs vehicle control” value (protein LMJF.36.3410 SHORT CHAIN DEHYDROGENASE-LIKE PROTEIN) was 1.26, the fold change (protein LMJF.36.3460 HYPOTHETICAL PROTEIN, CONSERVED (NIPSNAP, putative), vehicle control = 1) was 0.88 and the fold change (protein LMJF.36.3580 HY[…], CONSERVED (Protein of unknown function (DUF2009), putative), vehicle control = 1) was 1.12. For the same compound, the fold change (protein LMJF.36.3750 40S RIBOSOMAL PROTEIN S27-1, PUTATIVE, vehicle control = 1) was 1.02, the “fold change vs vehicle control” value (protein LMJF.36.5010 40S RIBOSOMAL PROTEIN SA, PUTATIVE) was 1.12 and the “fold change vs vehicle control” value (protein LMJF.36.5130 HY[…], CONSERVED) was 1.42. For the same compound, the “fold change vs vehicle control” value (protein LMJF.36.5150 HYPOTHETICAL PROTEIN, CONSERVED) was 0.97, the “fold change relative to vehicle control” value (protein LMJF.36.5380, NADH DEHYDROGENASE, PUTATIVE) was 1.14 and the “fold change vs vehicle control” value (protein LMJF.36.5390 PHOSPHORIBOSYLPYROPHOSPHATE SYNTHETASE, PUTATIVE) was 0.89. For the same compound, the “fold change vs vehicle control” value (protein LMJF.36.5620 ISOLEUCYL-TRNA SYNTHETASE, PUTATIVE) was 1, the fold change (protein LMJF.36.6430 PROTEIN TRANSPORT PROTEIN SEC23-LIKE PROTEIN, vehicle control = 1) was 0.89 and the “fold change vs vehicle control” value (protein LMJF.36.6760 HY[…], CONSERVED) was 1.01. For the same compound, the “fold change relative to vehicle control” value (protein LMJF.[…], MIT[…] BETA SUBUNIT, PUTATIVE) was 0.91, the “fold change relative to vehicle control” value (protein LMJF.[…], POLY(A) EXPORT PROTEIN, PUTATIVE) was 1.14 and the fold change (vs vehicle control, protein LINJ.20.0630 CYTIDINE TR[…], PUTATIVE,CTP SYNTHASE, PUTATIVE) was 1.04. It also gave a fold change (vs vehicle control, protein LINJ.20.1390 COATOMER BETA SUBUNIT, PUTATIVE) of 0.87, a fold change (vs vehicle control, protein LMJF.05.1140 VACUOLAR ATPASE SUBUNIT-LIKE PROTEIN) of 0.93 and a fold change (vs vehicle control, protein LMJF.07.1090 DELTA-5 FATTY ACID DESATURASE) of 0.92. For the same compound, the fold change (vs vehicle control, protein LMJF.09.0220 HYPOTHETICAL PROTEIN, CONSERVED) was 0.78, the fold change (vs vehicle control, protein LMJF.11.1030 HYPOTHETICAL PROTEIN, CONSERVED) was 0.93 and the fold change (vs vehicle control, protein LMJF.14.0640 FATTY ACID ELONGASE, PUTATIVE) was 0.8. The fold change (vs vehicle control, protein LMJF.14.0705 FATTY ACID ELONGASE, PUTATIVE) was 1.17, the fold change (vs vehicle control, protein LMJF.14.1120 KINESIN K39, PUTATIVE) was 0.6 and the fold change (vs vehicle control, protein LMJF.16.1610 PROHIBITIN) was 1.07. For the same compound, the fold change (vs vehicle control, protein LMJF.17.0010 HYPOTHETICAL PROTEIN, CONSERVED) was 0.87, the fold change (vs vehicle control, protein LMJF.18.1130 RAS-RELATED PROTEIN RAB-5, PUTATIVE) was 0.68 and the fold change (vs vehicle control, protein LMJF.19.1420 CYSTEINE PEPTIDASE A (CPA)) was 0.9. For the same compound, the fold change (vs vehicle control, protein LMJF.21.0280 HY[…], CONSERVED) was 0.94, the fold change (vs vehicle control, protein LMJF.22.1560 40S RIBOSOMAL PROTEIN L14, PUTATIVE) was 0.7 and the fold change (vs vehicle control, protein LMJF.23.1220 T-COMPLEX PROTEIN 1, GAMMA SUBUNIT, PUTATIVE) was 1.02. It also gave a fold change (vs vehicle control, protein LMJF.24.0370 ASPARTATE AMINOTRANSFERASE, PUTATIVE) of 1.01, a fold change (vs vehicle control, protein LMJF.25.1770 ENOYL-COA REDUCTASE, PUTATIVE) of 1.02 and a fold change (vs vehicle control, protein LMJF.26.0170 60S RIBOSOMAL PROTEIN L7, PUTATIVE) of 0.9. It also gave a fold change (vs vehicle control, protein LMJF.26.1550 TRI[…] ALPHA SUBUNIT, MIT[…]-LIKE PROTEIN) of 1.06, a fold change (vs vehicle control, protein LMJF.26.1610 PROLINE OXIDASE, MITOCHONDRIAL PRECURSOR-LIKE PROTEIN) of 0.83 and a fold change (vs vehicle control, protein LMJF.28.1950 X-PRO, DIPEPTIDYL-PEPTIDASE,SERINE PEPTIDASE, CLAN SC, FAMILY S15, PUTATIVE) of 1.14. The fold change (vs vehicle control, protein LMJF.31.1070 BIOTIN/LIPOATE PROTEIN LIGASE-LIKE PROTEIN) was 0.87, the fold change (vs vehicle control, protein LMJF.32.1370 HYPOTHETICAL PROTEIN, CONSERVED) was 0.91 and the fold change (vs vehicle control, protein LMJF.34.0490 IMPORTIN BETA-1 SUBUNIT, PUTATIVE) was 0.78. It also gave a fold change (vs vehicle control, protein LMJF.34.4060 UBIQUITIN HYDROLASE, PUTATIVE,CYSTEINE PEPTIDASE, CLAN CA, FAMILY C19, PUTATIVE) of 0.91, a fold change (vs vehicle control, protein LMJF.36.1600 PROTEASOME ALPHA 1 SUBUNIT, PUTATIVE) of 0.95 and a fold change (vs vehicle control, protein LMJF.[…] RIBOSOMAL PROTEIN S7, PUTATIVE) of 1.
